Laboratory results reported in patent publication US20240083908A1, “TETRAHYDROTHIENOPYRIMIDINESULFONAMIDE COMPOUNDS” (priority 2020, published 2024).

tested on: Kuramochi cells; experiment: Synthetic Lethality Assay of Cancer Cell; format: cell-based; conditions: Homo sapiens; growth inhibition of Kuramochi cells in the presence of methyl methanesulfonate (MMS), 96 hours, CellTiter-Glo
Procedure: In order to evaluate the cancer cell growth inhibitory effect of the present compound, the inhibitory effect of the compound on the growth of a human ovarian cancer cell line, Kuramochi cells, was examined in the presence of methyl methanesulfonate (MMS) which is used as a DNA methylating agent.
Test compound was dissolved in dimethyl sulfoxide and prepared a 10 mM compound solution. The compound solution was then further serially diluted with dimethyl sulfoxide to prepare a concentration of 400 times test compound solution from 6 mM to 1 μM.
Kuramochi cells were purchased from the JCRB cell bank and cultured at 37° C. in the presence of 5% of CO2 using the complete medium described above. […]
Cell viability after 96 hours was measured by using CellTiter-Glo (registered trademark) Luminescent Cell Viability Assay (manufactured by Promega Corporation) according to the recommended usage.
The luminescence intensity was measured by using a luminescence detection plate reader (Envision, manufactured by PerkinElmer Inc.). The cell viability of each well was calculated as a relative value (%) of the luminescence intensity of each well to which each test compound with each concentration was added in a case where the luminescence intensity of a well to which dimethyl sulfoxide was added instead of the test compound was defined as 100%. […]

| SMILES | IC50 [nM] |
| --- | --- |
| Cn1cc(Cn2c(=O)c3cc(S(=O)(=O)NC4(C)CC4)sc3n(Cc3ccc4c(c3)CC(=O)N4)c2=O)cn1 [Ex 130, 3-((1-Methyl-1H-pyrazol-4-yl)methyl)-N-(1-methylcyclopropyl)-2,4-dioxo-1-((2-oxoindolin-5-yl)methyl)-1,2,3,4-tetrahydrothieno[2,3-d]pyrimidine-6-sulfonamide] | 11700 |

molecular target: human recombinant PARG (Homo sapiens (Human), UniProt Q86W56); experiment: PARG Activity Assay; format: biochemical; conditions: recombinant human PARG 0.0185 nM, 1 hour pre-incubation, poly (ADP-ribose) substrate-coated plate, Abs 450
Procedure: In order to evaluate the PARG inhibitory activity of the present compound, the inhibitory activity of each test compound against human recombinant PARG was measured. The specific procedure is described below.
Test compound was dissolved in dimethyl sulfoxide and prepared a 10 mM stock solution.
PARG Activity Assay was performed in Streptavidin-coated 96-well plates. […] The substrate solution was added to the 96-well plate at the volume of 200 micro liter per well and incubated for 3 hours at room temperature. After the incubation, the substrate solution was discarded and assay plate was washed 4 times with 220 micro liter of PBS containing 0.1% Tween20 (PBST). […] The diluted enzyme solution was pre-incubated with compounds for 1 hour at room temperature in a 96-well plate and transferred 100 micro liter per well to the poly (ADP-ribose) substrate-coated assay plate. The plate was incubated for 1 hour at 25° C. and then washed 4 times with 220 micro liters of PBST. For the detection of non-digested poly (ADP-ribose) polymer on the plate, mouse anti-poly (ADP-ribose) antibody diluted with 0.2% BSA containing PBS was added 100 micro liters per well and incubated 1 hour at room temperature. Plate was washed 4 times with TBST and 100 micro liter of HRP-labeled anti-mouse Ig antibody was added to the wells. Plate was incubated for 30 minutes at room temperature and then washed 4 times with PBST. For the detection 100 micro liters of TMB substrate solution was added to the wells. After sufficient color development, reaction was stopped by addition of 50 micro liter of 0.2 M […]. The 450 nm absorbance (Abs 450) of each well was read with a micro plate reader. The assay was performed by duplicated and average of 2 independent assays were used for the determination of PARG inhibitor y activity.
Wells treated with dimethyl sulfoxide instead of test compound solution were designated as a Negative Control of assay
Wells treated with 0.2% BSA containing PBS instead of recombinant human PARG protein and with dimethyl sulfoxide instead of test compound solution were designated as a Positive Control of assay.
The PARG Inhibitory Activity (%) was determined by the following formulation.
PARG Inhibitory Activity (%)=[(AbsX−AbsA)/(AbsB−AbsA)]×100
(wherein, • AbsA is absorbance (Abs 450) of Negative Control wells • AbsB is absorbance (Abs 450) of Positive Control wells • AbsX is absorbance (Abs 450) of wells treated with test compound.)
In Table, Ex indicates an Example number shown below.

Sequence of human recombinant PARG (Q86W56 whole entry): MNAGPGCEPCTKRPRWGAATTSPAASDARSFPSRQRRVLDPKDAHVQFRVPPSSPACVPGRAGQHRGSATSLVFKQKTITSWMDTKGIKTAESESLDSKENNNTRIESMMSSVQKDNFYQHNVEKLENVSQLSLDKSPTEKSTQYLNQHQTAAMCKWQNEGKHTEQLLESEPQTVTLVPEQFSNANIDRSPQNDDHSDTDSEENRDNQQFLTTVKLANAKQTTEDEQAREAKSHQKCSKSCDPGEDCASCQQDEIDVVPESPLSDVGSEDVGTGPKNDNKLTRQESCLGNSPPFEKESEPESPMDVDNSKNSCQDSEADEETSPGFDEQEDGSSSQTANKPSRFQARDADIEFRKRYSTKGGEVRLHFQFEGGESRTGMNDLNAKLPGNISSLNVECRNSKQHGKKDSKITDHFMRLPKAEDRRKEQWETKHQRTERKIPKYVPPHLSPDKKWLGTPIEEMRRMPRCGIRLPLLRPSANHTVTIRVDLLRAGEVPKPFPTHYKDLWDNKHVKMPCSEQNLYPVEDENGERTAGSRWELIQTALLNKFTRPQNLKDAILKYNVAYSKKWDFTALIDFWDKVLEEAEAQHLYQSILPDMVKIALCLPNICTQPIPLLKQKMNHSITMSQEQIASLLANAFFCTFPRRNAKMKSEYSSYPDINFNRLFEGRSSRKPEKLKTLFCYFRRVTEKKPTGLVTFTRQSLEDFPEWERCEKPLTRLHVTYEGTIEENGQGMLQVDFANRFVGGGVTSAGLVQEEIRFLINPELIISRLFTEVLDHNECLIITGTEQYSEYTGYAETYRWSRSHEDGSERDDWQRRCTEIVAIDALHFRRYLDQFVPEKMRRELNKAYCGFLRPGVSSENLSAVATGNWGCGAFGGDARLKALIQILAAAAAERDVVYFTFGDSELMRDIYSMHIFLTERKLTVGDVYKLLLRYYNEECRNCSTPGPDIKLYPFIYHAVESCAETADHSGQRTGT

| SMILES | IC50 [nM] |
| --- | --- |
| Cn1cc(Cn2c(=O)c3cc(S(=O)(=O)NC4(C)CC4)sc3n(Cc3ccc(OC(F)F)cc3)c2=O)cn1 [Ex 51] | 33 |
| Cn1cc(Cn2c(=O)c3cc(S(=O)(=O)NC4(C)CC4)sc3n(Cc3ccc4[nH]c(=O)oc4c3)c2=O)cn1 [Ex 39] | 21 |
| CNc1ccc(Cn2c(=O)n(Cc3cnn(C)c3)c(=O)c3cc(S(=O)(=O)NC4(C)CC4)sc32)cc1F [Ex 73] | 17 |
| Cn1cc(Cn2c(=O)c3cc(S(=O)(=O)NC4(C)CC4)sc3n(Cc3cncnc3)c2=O)cn1 [Ex 34] | 300 |
| Cc1nc(C)c(Cn2c(=O)n(Cc3cnn(C)c3)c(=O)c3cc(S(=O)(=O)NC4(C#N)CC4)sc32)s1 [Ex 101] | 64 |
| CC#CCn1c(=O)n(Cc2cnn(C)c2)c(=O)c2cc(S(=O)(=O)NC3(C)CC3)sc21 [Ex 27] | 250 |
| COc1c(F)cc(Cn2c(=O)n(Cc3cnn(C)c3)c(=O)c3cc(S(=O)(=O)NC4(C)CC4)sc32)cc1F [Ex 123] | 29 |
| Cc1ncc(Cn2c(=O)c3cc(S(=O)(=O)NC4(C)CC4)sc3n(CC3CCOCC3)c2=O)s1 [Ex 14] | 320 |
| Cn1cc(Cn2c(=O)c3cc(S(=O)(=O)NC4(C)CC4)sc3n(Cc3ccc4[nH]ncc4c3)c2=O)cn1 [Ex 38] | 4.1 |
| Cc1ncc(Cn2c(=O)c3cc(S(=O)(=O)NC4(C)CC4)sc3n(CCOC3CNC3)c2=O)s1 [Ex 7] | 210 |
| Cn1cc(Cn2c(=O)c3cc(S(=O)(=O)NC4(C)CC4)sc3n(Cc3cnc(NCCO)nc3)c2=O)cn1 [Ex 80] | 420 |
| Cc1nn(C)cc1Cn1c(=O)n(Cc2cnn(C)c2)c(=O)c2cc(S(=O)(=O)NC3(C)CC3)sc21 [Ex 32] | 6990 |
| Cc1cc(Cn2c(=O)n(Cc3cnn(C)c3)c(=O)c3cc(S(=O)(=O)NC4(C)CC4)sc32)[nH]n1 [Ex 31] | 29 |
| CN1CCc2ccc(Cn3c(=O)n(Cc4cnn(C)c4)c(=O)c4cc(S(=O)(=O)NC5(C)CC5)sc43)cc2C1=O [Ex 118] | 120 |
| Cn1cc(Cn2c(=O)c3cc(S(=O)(=O)NC4(C)CC4)sc3n(Cc3cnc4c(c3)OCCO4)c2=O)cn1 [Ex 65] | 68 |
| Cc1c[nH]c(Cn2c(=O)n(Cc3cnn(C)c3)c(=O)c3cc(S(=O)(=O)NC4(C)CC4)sc32)c(C)c1=O [Ex 134] | 6040 |
| Cn1cc(Cn2c(=O)c3cc(S(=O)(=O)NC4(C)CC4)sc3n(Cc3ccn(C)c(=O)c3)c2=O)cn1 [Ex 85] | 110 |
| Cc1ncc(Cn2c(=O)c3cc(S(=O)(=O)NC4(C)CC4)sc3n(Cc3nc4c(o3)CCCC4)c2=O)s1 [Ex 20] | 110 |
| CN1Cc2ccc(Cn3c(=O)n(Cc4cnn(C)c4)c(=O)c4cc(S(=O)(=O)NC5(C)CC5)sc43)cc2C1 [Ex 67] | 100 |
| Cc1ncc(Cn2c(=O)c3cc(S(=O)(=O)NC4(C)CC4)sc3n(Cc3ccc4cc[nH]c4c3)c2=O)s1 [Ex 11] | 160 |

| SMILES | IC50 [nM] |
| --- | --- |
| Cn1cc(Cn2c(=O)c3cc(S(=O)(=O)NC4(C)CC4)sc3n(CC3CC3)c2=O)cn1 [Ex 26] | 370 |
| Cc1c(Cn2c(=O)n(Cc3cnn(C)c3)c(=O)c3cc(S(=O)(=O)NC4(C)CC4)sc32)ccc2c1COC2 [Ex 115] | 68 |
| Cn1cc(Cn2c(=O)c3cc(S(=O)(=O)NC4(C)CC4)sc3n(Cc3ccc(N4CC[C@H](O)C4)nc3)c2=O)cn1 [Ex 83] | 110 |
| Cn1cc(Cn2c(=O)c3cc(S(=O)(=O)NC4(C)CC4)sc3n(CC34CC(F)(C3)C4)c2=O)cn1 [Ex 119] | 240 |
| Cn1cc(Cn2c(=O)c3cc(S(=O)(=O)NC4(C)CC4)sc3n(Cc3ccc(F)cc3)c2=O)cn1 [Ex 46] | 9.2 |
| Cn1cc(Cn2c(=O)c3cc(S(=O)(=O)NC4(C)CC4)sc3n(CCC3(C)COC3)c2=O)cn1 [Ex 120] | 120 |
| CCN(C)c1ccc(Cn2c(=O)n(Cc3cnn(C)c3)c(=O)c3cc(S(=O)(=O)NC4(C)CC4)sc32)cc1F [Ex 72] | 190 |
| Cc1cc(Cn2c(=O)n(Cc3cnn(C)c3)c(=O)c3cc(S(=O)(=O)NC4(C)CC4)sc32)cc2c1COC2 [Ex 114] | 34 |
| Cn1cc(Cn2c(=O)c3cc(S(=O)(=O)NC4(C)CC4)sc3n(Cc3cc4c(cn3)COC4)c2=O)cn1 [Ex 41] | 97 |
| Cn1cc(Cn2c(=O)c3cc(S(=O)(=O)NC4(C)CC4)sc3n(Cc3ccc4c(n3)COC4)c2=O)cn1 [Ex 109] | 45 |
| COC(=O)c1cc(Cn2c(=O)n(Cc3cnn(C)c3)c(=O)c3cc(S(=O)(=O)NC4(C)CC4)sc32)ccc1F [Ex 126] | 45 |
| Cc1cc2c(cc1Cn1c(=O)n(Cc3cnn(C)c3)c(=O)c3cc(S(=O)(=O)NC4(C)CC4)sc31)COC2 [Ex 113] | 94 |
| Cn1cc(Cn2c(=O)c3cc(S(=O)(=O)NC4(C)CC4)sc3n(CCc3ccccc3)c2=O)cn1 [Ex 132] | 660 |
| Cn1cc(Cn2c(=O)c3cc(S(=O)(=O)NC4(C)CC4)sc3n(Cc3ccc(Cl)c(F)c3)c2=O)cn1 [Ex 47] | 130 |
| Cn1cc(Cn2c(=O)c3cc(S(=O)(=O)NC4(C)CC4)sc3n(Cc3ccc4c(c3)CCO4)c2=O)cn1 [Ex 59] | 22 |
| CNCCCC(=O)N1CCC(n2c(=O)n(Cc3cnn(C)c3)c(=O)c3cc(S(=O)(=O)NC4(C)CC4)sc32)CC1 [Ex 96] | 130 |
| Cn1cc(Cn2c(=O)c3cc(S(=O)(=O)NC4(C)CC4)sc3n(Cc3ccc4c(c3)CNC4)c2=O)cn1 [Ex 66] | 46 |
| Cn1cc(Cn2c(=O)c3cc(S(=O)(=O)NC4(C#N)CC4)sc3n(Cc3ccc(F)cc3)c2=O)cn1 [Ex 103] | 110 |
| Cn1cc(Cn2c(=O)c3cc(S(=O)(=O)NC4(C)CC4)sc3n(Cc3ccc(OC(F)(F)F)cc3)c2=O)cn1 [Ex 52] | 100 |
| COc1cncc(Cn2c(=O)n(Cc3cnn(C)c3)c(=O)c3cc(S(=O)(=O)NC4(C)CC4)sc32)c1 [Ex 42] | 40 |
